In patent publication US9410125B2, “Medium for mammalian somatic cells and additive therefor” (FUJIREBIO INC., priority 2007, dated 2016):

Test system: human bone marrow-derived mesenchymal stem cells (hMSCs)
Experiment: Adipogenic differentiation of hMSCs (Oil Red O staining)
Assay type: cell-based
Details: Example 2, differentiation into adipocytes and osteocytes
Method: Cells maintained for several passages using the conventional medium in (2-2) and 1% S-3, 1% FCS were transferred to wells in a 96-well plate each containing 0.1 mL of an adipocyte differentiation medium (DMEM, 10% FCS, 500 μM isobutylmethylxanthine (IBMX), 1 μM dexamethasone, 1 μM insulin, 1 μM Rosiglitazone) at a cell density of 20,000 cells/cm2, and cultured at 37° C. under 5% CO2 for 14 days, to induce differentiation into adipocytes. differentiated cells were confirmed by Oil Red O staining.
Cells maintained for several passages using conventional medium A and serum-free growth medium A were transferred to wells in a 48-well plate each containing 0.3 mL of an adipocyte differentiation medium (DMEM, 10% FCS, 500 μM IBMX, 1 μM dexamethasone, 1 μM insulin, 1 μM Rosiglitazone) at a cell density of 30,000 cells/cm2, and cultured at 37° C. under 5% CO2 for 14 days, to induce differentiation into adipocytes. differentiated cells were confirmed by Oil Red O staining. […]

CCCCCCCCCCCCC/C=C/[C@@H](O)[C@@H](N)COP(=O)(O)O [S1P, sphingosine-1-phosphate]
tendency in differentiation when used instead of LPA as the Edg ligand: did not change
